Measured values taken from patent US20260308278A1, “ANTIBODY THAT BINDS TO C3bBb” (Hoffmann-La Roche Inc., priority 2023, published 2026).

How the values were obtained:
classical pathway = test: Classical pathway hemolysis assay (Ab-sensitized sheep erythrocytes); type: cell-based, human
Description: Everything was prepared at RT except for the serum which was kept on ice so that the complement cascade would not start. Washed Ab-sensitized sheep erythrocytes (EA) were added to a V-shaped 96-well plate together with the dilution series of antibodies in a buffer appropriate for the classical pathway. Normal human serum was added at a final assay concentration of 2% and mixed gently with the other components. Complement activation was started by incubating the plates at 37° C. shaking continuously at 600 rpm to prevent the total sedimentation of the EAs. Hemolysis reaction was stopped after 30 min with the addition of ice-cold NaCl-solution containing 10 mM EDTA. Plates were centrifuged for 2 min at 1000×g at 4° C. to pellet the non-lysed EAs. […] Percentage of hemolysis was calculated: (OD test sample−OD BG or EDTA ctrl)/(OD full lysis−OD BG or EDTA ctrl)×100. IC50 values were calculated using Xlfit.

[1] = system: alternative complement pathway in human serum; test: Wieslab Complement system Alternative pathway assay; type: biochemical; conditions: comparative compounds, Table E14
Description: This kit is an enzyme immunoassay for the determination of functional alternative complement pathway in human serum.
It combines principles of a hemolytic assay for complement activation with the use of specific antibodies to detect the generated neoantigen, which is proportional to the functional activity of the complement pathway. […] This mixture was diluted 1:18 in a diluent with a specific blocker (so that only AP will be activated) and incubated for another 15 min at RT. Solution was added to a 96-well plate specifically coated with activators of the AP and incubated for 60 min at 37° C. Wells were washed and C5b-9 detected following the protocol.

[2] = system: C3bBb from Macaca Fascicularis; test: Cross-reactivity hemolysis assay, Macaca Fascicularis; type: cell-based, Macaca Fascicularis (Cynomolgus); conditions: 37° C., 20 min
[3] = system: C3bBb from Chlorocebus sabaeus; test: Cross-reactivity hemolysis assay, Chlorocebus sabaeus; type: cell-based, Chlorocebus sabaeus (African Green Monkey); conditions: RT, 20 min
C3 convertase (C3bBb) = target: T1, C3 convertase (C3bBb) (Homo sapiens, UniProt P00751+P01024); test: BLI based C3b deposition assay; type: biochemical; conditions: comparative compounds, Table E14
T1 construct: C3b fragment of complement component C3; from tissue; host or cells: plasma (factor B and factor D)
Description: In another experiment, the potency of the antibodies was assessed via a BLI based C3b deposition assay.
BLI based C3b deposition assay: The activated carbonyl group created upon C3 cleavage by the C3 convertase reacts and forms covalent adducts with nucleophiles in close proximity to the enzyme. We utilized this property to measure convertase activity by quantifying the C3b mass deposited on a BLI sensor loaded with C3bBb and exposed to C3.

T1 sequence (P01024 23-667 limits assumed): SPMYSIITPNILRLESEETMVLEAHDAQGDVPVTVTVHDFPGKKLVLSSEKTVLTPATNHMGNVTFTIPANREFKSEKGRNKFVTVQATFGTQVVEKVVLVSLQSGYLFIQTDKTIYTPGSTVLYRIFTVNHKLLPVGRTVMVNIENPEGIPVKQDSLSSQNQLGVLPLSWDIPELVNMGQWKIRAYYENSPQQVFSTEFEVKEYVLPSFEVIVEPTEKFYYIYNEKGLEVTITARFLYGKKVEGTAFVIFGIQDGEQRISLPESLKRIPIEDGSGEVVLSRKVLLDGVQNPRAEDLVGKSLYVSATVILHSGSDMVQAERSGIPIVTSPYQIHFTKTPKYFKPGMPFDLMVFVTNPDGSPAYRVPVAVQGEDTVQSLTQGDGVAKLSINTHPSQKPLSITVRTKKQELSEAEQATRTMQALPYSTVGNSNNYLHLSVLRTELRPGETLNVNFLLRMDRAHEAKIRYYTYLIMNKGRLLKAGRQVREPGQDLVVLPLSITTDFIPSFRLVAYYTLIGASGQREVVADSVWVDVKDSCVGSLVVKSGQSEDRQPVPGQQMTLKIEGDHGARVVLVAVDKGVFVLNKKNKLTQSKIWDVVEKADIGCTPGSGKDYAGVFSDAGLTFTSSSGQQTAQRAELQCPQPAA
T1 sequence (P01024 749-1663 limits assumed): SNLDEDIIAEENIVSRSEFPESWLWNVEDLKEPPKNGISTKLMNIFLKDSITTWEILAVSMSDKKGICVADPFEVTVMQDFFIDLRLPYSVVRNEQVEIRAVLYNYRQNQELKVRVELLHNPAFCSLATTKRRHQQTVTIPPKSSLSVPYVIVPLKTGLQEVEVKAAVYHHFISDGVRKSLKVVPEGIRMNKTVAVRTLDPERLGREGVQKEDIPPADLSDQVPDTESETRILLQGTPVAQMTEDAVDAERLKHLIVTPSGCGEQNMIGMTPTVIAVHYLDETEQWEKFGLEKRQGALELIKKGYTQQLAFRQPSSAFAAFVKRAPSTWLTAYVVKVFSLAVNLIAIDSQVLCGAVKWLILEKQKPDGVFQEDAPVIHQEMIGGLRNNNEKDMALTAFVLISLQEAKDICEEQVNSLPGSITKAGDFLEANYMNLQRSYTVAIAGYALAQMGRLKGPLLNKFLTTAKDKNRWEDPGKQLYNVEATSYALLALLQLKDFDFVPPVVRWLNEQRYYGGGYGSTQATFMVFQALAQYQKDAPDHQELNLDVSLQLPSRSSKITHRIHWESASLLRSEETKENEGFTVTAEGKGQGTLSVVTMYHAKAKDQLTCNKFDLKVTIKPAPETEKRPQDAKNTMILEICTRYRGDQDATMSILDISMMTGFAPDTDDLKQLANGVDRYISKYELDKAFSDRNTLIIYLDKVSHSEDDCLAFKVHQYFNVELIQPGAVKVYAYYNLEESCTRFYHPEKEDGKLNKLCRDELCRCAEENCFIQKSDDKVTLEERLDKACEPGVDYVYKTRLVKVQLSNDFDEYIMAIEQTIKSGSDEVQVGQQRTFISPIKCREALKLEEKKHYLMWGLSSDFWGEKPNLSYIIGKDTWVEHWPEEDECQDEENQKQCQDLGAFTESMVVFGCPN
T1 sequence (P00751 260-764 limits assumed): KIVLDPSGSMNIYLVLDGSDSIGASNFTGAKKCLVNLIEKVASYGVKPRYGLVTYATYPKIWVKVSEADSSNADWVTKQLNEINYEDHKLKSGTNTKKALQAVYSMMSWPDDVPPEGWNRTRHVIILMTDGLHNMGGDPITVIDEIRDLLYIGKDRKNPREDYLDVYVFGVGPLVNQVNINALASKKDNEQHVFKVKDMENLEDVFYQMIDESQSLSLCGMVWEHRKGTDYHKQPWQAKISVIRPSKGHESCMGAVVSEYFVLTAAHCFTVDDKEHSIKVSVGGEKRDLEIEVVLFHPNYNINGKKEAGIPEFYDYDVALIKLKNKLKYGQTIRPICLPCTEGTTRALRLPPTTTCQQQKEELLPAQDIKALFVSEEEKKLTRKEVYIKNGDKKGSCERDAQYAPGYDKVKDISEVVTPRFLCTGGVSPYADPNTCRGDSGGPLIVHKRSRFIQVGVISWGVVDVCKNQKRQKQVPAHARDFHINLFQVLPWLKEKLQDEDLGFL

## CCO[C@H]1CCN(Cc2c(OC)cc(C)c3[nH]ccc23)[C@H](c2ccc(C(=O)O)cc2)C1 [LNP023, Iptacopan]
Classical pathway
  inhibition of the classical pathway: does not inhibit the classical pathway

## Pegcetacoplan [APL-2]
[1]
  IC50: 274 nM
Classical pathway; 2% normal human serum, sheep erythrocytes
  IC50: 1020 nM
[2]
  IC50: 316 nM
[3]
  IC50: 147 nM
C3 convertase (C3bBb)
  IC50: 200 nM
